Measured values as given in BindingDB's records for PubMed 37738648 (Astrazeneca, 2023).

Key:
[1] = biological target: Tyrosine-protein kinase JAK1 (Homo sapiens, UniProt P23458); assay: Inhibition of N-terminal GST-tagged human recombinant JAK1 (866 to 1154 residues) expressed in insect cells using FITC-C6-KKHTDDGYMPMSPGVA-NH peptide as substrate incubated for 10 mins measured after 90 mins in presence of ATP by caliper mobility shift assay
[2] = biological target: T1, Tyrosine-protein kinase JAK3 (Homo sapiens, UniProt P52333); assay: Inhibition of N-terminal GST-tagged human recombinant JAK3 (781 to 1124 residues) expressed in insect cells using 5FAM-GEEPLYWSFPAKKK-NH2 peptide as substrate incubated for 10 mins measured after 90 mins in presence of ATP by caliper mobility shift assay
T1 sequence (P52333 whole entry): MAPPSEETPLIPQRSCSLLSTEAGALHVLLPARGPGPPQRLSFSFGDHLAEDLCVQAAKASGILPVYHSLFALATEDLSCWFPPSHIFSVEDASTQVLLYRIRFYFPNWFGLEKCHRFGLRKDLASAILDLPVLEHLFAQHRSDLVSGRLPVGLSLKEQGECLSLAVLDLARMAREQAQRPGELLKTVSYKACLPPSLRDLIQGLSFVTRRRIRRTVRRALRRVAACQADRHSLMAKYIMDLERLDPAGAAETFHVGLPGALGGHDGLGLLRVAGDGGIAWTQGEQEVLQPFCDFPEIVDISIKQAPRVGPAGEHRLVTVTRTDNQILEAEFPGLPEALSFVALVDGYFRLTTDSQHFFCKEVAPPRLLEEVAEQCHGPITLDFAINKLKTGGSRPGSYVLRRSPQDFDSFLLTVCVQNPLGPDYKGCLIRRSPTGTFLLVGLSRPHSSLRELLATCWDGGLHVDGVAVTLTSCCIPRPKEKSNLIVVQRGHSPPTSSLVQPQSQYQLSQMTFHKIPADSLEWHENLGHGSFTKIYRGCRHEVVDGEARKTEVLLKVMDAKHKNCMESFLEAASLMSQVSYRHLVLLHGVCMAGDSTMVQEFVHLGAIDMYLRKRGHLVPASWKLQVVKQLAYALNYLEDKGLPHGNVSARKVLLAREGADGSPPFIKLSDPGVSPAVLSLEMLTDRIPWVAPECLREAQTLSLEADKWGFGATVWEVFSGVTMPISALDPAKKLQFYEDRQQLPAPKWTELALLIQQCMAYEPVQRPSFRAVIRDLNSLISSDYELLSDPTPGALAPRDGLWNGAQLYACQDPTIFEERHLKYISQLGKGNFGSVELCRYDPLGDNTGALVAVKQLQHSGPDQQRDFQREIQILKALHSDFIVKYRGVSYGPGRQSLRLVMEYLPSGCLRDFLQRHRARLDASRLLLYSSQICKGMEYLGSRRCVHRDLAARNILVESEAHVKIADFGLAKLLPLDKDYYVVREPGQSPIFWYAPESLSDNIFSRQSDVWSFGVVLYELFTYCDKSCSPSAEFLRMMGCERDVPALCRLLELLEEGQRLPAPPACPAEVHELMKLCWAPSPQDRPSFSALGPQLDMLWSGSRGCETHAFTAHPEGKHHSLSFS

Sequence of Tyrosine-protein kinase JAK1 (P23458 whole entry, the tested form may be a part): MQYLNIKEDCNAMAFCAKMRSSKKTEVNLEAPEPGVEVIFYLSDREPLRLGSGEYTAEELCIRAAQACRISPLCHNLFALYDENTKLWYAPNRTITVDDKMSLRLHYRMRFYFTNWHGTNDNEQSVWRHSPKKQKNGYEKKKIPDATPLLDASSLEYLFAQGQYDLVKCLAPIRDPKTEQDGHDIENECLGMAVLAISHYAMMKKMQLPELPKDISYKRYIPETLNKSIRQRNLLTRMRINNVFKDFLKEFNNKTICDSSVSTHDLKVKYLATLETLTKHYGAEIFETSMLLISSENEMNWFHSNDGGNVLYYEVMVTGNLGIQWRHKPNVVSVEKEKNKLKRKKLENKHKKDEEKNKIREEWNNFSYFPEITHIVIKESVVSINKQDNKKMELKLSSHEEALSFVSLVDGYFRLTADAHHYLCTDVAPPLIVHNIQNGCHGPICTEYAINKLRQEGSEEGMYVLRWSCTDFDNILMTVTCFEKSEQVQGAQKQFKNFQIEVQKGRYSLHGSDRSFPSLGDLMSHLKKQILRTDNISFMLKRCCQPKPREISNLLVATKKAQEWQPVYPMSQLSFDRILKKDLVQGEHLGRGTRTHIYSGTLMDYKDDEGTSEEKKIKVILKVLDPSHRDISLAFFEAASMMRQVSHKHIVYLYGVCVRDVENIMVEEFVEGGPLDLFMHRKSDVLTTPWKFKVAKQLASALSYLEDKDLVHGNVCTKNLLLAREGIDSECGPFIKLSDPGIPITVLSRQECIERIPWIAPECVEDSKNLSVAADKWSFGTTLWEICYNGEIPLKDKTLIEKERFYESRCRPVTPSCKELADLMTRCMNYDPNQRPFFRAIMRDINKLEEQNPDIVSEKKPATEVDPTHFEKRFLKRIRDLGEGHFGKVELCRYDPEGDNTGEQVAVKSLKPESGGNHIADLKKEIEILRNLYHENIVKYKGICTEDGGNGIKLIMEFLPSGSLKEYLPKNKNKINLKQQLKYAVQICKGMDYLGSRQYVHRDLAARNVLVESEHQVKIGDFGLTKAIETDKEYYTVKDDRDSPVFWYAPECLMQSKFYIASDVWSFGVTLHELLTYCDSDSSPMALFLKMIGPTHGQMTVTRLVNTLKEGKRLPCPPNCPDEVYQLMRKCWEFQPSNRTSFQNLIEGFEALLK

Structure (SMILES) | IC50 [1] | IC50 [2]
COC[C@H](C(=O)Nc1cccc2c(-c3nc(Nc4cccc(S(C)(=O)=O)c4F)ncc3C)c[nH]c12)N1CCN(C)CC1 [US10961228, Example 16] | < 0.003 µM | > 30 µM
Cc1cnc(Nc2cccc(S(C)(=O)=O)c2F)nc1-c1c[nH]c2c(NC(=O)[C@@H](C)N3CCN(C)CC3)cccc12 [US10961228, Example 2] | – | > 30 µM
CC[C@H](C(=O)Nc1cccc2c(-c3nc(Nc4cccc(S(C)(=O)=O)c4F)ncc3C)c[nH]c12)N1CCN(C)CC1 [US10961228, Example 14] | < 0.003 µM | > 30 µM

Further lines, results first:

IC50 [1] | IC50 [2] | Structure (SMILES)
< 0.003 µM | > 30 µM | COC[C@H](C(=O)Nc1cccc2c(-c3nc(Nc4cccc(S(C)(=O)=O)c4F)ncc3F)c[nH]c12)N1CCN(C)CC1 [US10961228, Example 35]
– | > 30 µM | CC[C@H](C(=O)Nc1cccc2c(-c3nc(Nc4cccc(S(C)(=O)=O)c4F)ncc3F)c[nH]c12)N1CCN(C)CC1 [US10961228, Example 38]
